Source: ChEMBL document CHEMBL3045630, “Predictive QSAR modeling on tetrahydropyrimidine-2-one derivatives as HIV-1 protease enzyme inhibitors” (Med Chem Res, 2013)

target: Protease (Human immunodeficiency virus 1, UniProt Q9YQ12); assay: Inhibition of Human immunodeficiency virus 1 protease
Sequence (Q9YQ12 whole entry): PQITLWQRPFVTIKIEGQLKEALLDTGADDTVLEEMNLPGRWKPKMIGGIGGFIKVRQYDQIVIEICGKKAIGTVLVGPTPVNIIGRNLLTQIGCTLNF

Ki	Structure (SMILES)
186 nM	O=C1N(Cc2ccccc2)C(Cc2ccccc2)C(O)C(C(Br)Cc2ccccc2)N1Cc1ccccc1 (centres undefined)
66.1 nM	O=C1NC(CCc2ccccc2)C(O)C(Cc2ccccc2)N1Cc1ccccc1 (centres undefined)
15.1 nM	N#Cc1cccc(CN2C(=O)NC(CCc3ccccc3)C(O)C2Cc2ccccc2)c1 (centres undefined)
158 nM	Nc1cccc(CN2C(=O)NC(CCc3ccccc3)C(O)C2Cc2ccccc2)c1 (centres undefined)
6.17 nM	Nc1cccc(CN2C(=O)NC(Cc3ccccc3)C(O)C2CCc2ccccc2)c1 (centres undefined)
11 nM	N#Cc1cccc(CN2C(=O)N(Cc3cccc(C#N)c3)C(Cc3ccccc3)C(O)C2CCc2ccccc2)c1 (centres undefined)
0.912 nM	CC(=O)c1cccc(CN2C(=O)N(Cc3cccc(C(C)=O)c3)C(Cc3ccccc3)C(O)C2CCc2ccccc2)c1 (centres undefined)
0.0891 nM	NC(=O)c1cccc(CN2C(=O)N(Cc3cccc(C(N)=O)c3)C(Cc3ccccc3)C(O)C2CCc2ccccc2)c1 (centres undefined)
0.309 nM	NC(=O)c1cccc(CN2C(=O)N(Cc3cccc(C(N)=O)c3)C(Cc3ccc(F)cc3)C(O)C2CCc2ccc(F)cc2)c1 (centres undefined)
0.151 nM	NC(=O)c1cccc(CN2C(=O)N(Cc3cccc(C(N)=O)c3)C(Cc3ccc(F)c(F)c3)C(O)C2CCc2ccc(F)c(F)c2)c1 (centres undefined)
0.02 nM	N/C(=N/O)c1cccc(CN2C(=O)N(Cc3cccc(/C(N)=N\O)c3)C(Cc3ccc(F)cc3)C(O)C2CCc2ccc(F)cc2)c1 (centres undefined)
0.01 nM	N/C(=N/O)c1cccc(CN2C(=O)N(Cc3cccc(/C(N)=N\O)c3)C(Cc3ccc(F)c(F)c3)C(O)C2CCc2ccc(F)c(F)c2)c1 (centres undefined)
0.0603 nM	N/C(=N/O)c1cc(CN2C(=O)N(Cc3ccc(F)c(/C(N)=N\O)c3)C(Cc3ccc(F)c(F)c3)C(O)C2CCc2ccccc2)ccc1F (centres undefined)
1.7 nM	Nc1cccc(CN2C(=O)N(Cc3cccc(N)c3)C(Cc3ccccc3)C(O)C2CCc2ccccc2)c1 (centres undefined)
7.94 nM	Nc1ccc(CN2C(=O)N(Cc3ccc(N)c(F)c3)C(Cc3ccccc3)C(O)C2CCc2ccccc2)cc1F (centres undefined)
22.9 nM	CNc1cccc(CN2C(=O)N(Cc3cccc(NC)c3)C(Cc3ccccc3)C(O)C2CCc2ccccc2)c1 (centres undefined)
0.1 nM	O=C1N(Cc2cccc(-n3cccn3)c2)C(CCc2ccccc2)C(O)C(Cc2ccccc2)N1Cc1cccc(-n2cccn2)c1 (centres undefined)
0.0603 nM	O=C1N(Cc2ccc3[nH]ncc3c2)C(CCc2ccccc2)C(O)C(Cc2ccccc2)N1Cc1ccc2[nH]ncc2c1 (centres undefined)
0.1 nM	Cc1n[nH]c2ccc(CN3C(=O)N(Cc4ccc5[nH]nc(C)c5c4)C(Cc4ccccc4)C(O)C3CCc3ccccc3)cc12 (centres undefined)
0.0302 nM	Nc1n[nH]c2ccc(CN3C(=O)N(Cc4ccc5[nH]nc(N)c5c4)C(Cc4ccccc4)C(O)C3CCc3ccccc3)cc12 (centres undefined)
12 nM	O=C1N(Cc2cccc(O)c2)C(Cc2ccccc2)C(O)C(C(F)Cc2ccccc2)N1Cc1cccc(O)c1 (centres undefined)
11 nM	O=C1N(Cc2cccc(CO)c2)C(Cc2ccccc2)C(O)C(C(Br)Cc2ccccc2)N1Cc1cccc(CO)c1 (centres undefined)

Ki	Structure (SMILES)
110 nM	N#Cc1cc(CN2C(=O)NC(CCc3ccccc3)C(O)C2Cc2ccccc2)ccc1F (centres undefined)
5.62 nM	NC(=O)c1cccc(CN2C(=O)NC(CCc3ccccc3)C(O)C2Cc2ccccc2)c1 (centres undefined)
14.1 nM	NC(=O)c1cc(CN2C(=O)NC(CCc3ccccc3)C(O)C2Cc2ccccc2)ccc1F (centres undefined)
0.24 nM	N/C(=N/O)c1cccc(CN2C(=O)NC(CCc3ccccc3)C(O)C2Cc2ccccc2)c1 (centres undefined)
1.41 nM	N/C(=N/O)c1cc(CN2C(=O)NC(CCc3ccccc3)C(O)C2Cc2ccccc2)ccc1F (centres undefined)
0.38 nM	Cc1n[nH]c2ccc(CN3C(=O)NC(CCc4ccccc4)C(O)C3Cc3ccccc3)cc12 (centres undefined)
1.2 nM	O=C1NC(CCc2ccccc2)C(O)C(Cc2ccccc2)N1Cc1ccc2[nH]ncc2c1 (centres undefined)
33.1 nM	N#Cc1cc(CN2C(=O)N(Cc3ccccc3)C(Cc3ccccc3)C(O)C2CCc2ccccc2)ccc1F (centres undefined)
39.8 nM	N#Cc1cc(CN2C(=O)N(Cc3ccccc3)C(CCc3ccccc3)C(O)C2Cc2ccccc2)ccc1F (centres undefined)
0.646 nM	Nc1n[nH]c2cc(CN3C(=O)N(Cc4ccccc4)C(Cc4ccccc4)C(O)C3CCc3ccccc3)ccc12 (centres undefined)
0.282 nM	Nc1n[nH]c2ccc(CN3C(=O)N(Cc4ccccc4)C(CCc4ccccc4)C(O)C3Cc3ccccc3)cc12 (centres undefined)
0.129 nM	Cc1n[nH]c2cc(CN3C(=O)N(Cc4cccc(N)c4)C(Cc4ccccc4)C(O)C3CCc3ccccc3)ccc12 (centres undefined)
1.58 nM	N#Cc1cccc(CN2C(=O)N(Cc3cccc(N)c3)C(Cc3ccccc3)C(O)C2CCc2ccccc2)c1 (centres undefined)
0.1 nM	Nc1cccc(CN2C(=O)N(Cc3ccc4c(N)n[nH]c4c3)C(CCc3ccccc3)C(O)C2Cc2ccccc2)c1 (centres undefined)
14.1 nM	N#Cc1cccc(CN2C(=O)N(Cc3cccc(C#N)c3)C(Cc3cccc(F)c3)C(O)C2CCc2ccc(F)cc2)c1 (centres undefined)
0.251 nM	Nc1cc(CN2C(=O)N(Cc3ccc(F)c(N)c3)C(Cc3ccccc3)C(O)C2CCc2ccccc2)ccc1F (centres undefined)
0.0794 nM	Cc1ccc(C(=O)Nc2cccc(CN3C(=O)N(Cc4cccc(NC(=O)c5ccc(C)cn5)c4)C(Cc4ccccc4)C(O)C3CCc3ccccc3)c2)nc1 (centres undefined)
0.0302 nM	CN1C=CSC1C(=O)Nc1cccc(CN2C(=O)N(Cc3cccc(NC(=O)C4SC=CN4C)c3)C(Cc3ccccc3)C(O)C2CCc2ccccc2)c1 (centres undefined)
43.7 nM	O=C1NC(Cc2ccccc2)C(O)C(CCc2ccccc2)N1Cc1ccc2cn[nH]c2c1 (centres undefined)
0.0794 nM	Nc1cccc(CN2C(=O)N(Cc3ccc4cn[nH]c4c3)C(Cc3ccccc3)C(O)C2CCc2ccccc2)c1 (centres undefined)
0.0603 nM	NC(=O)c1cccc(CN2C(=O)N(Cc3cccc(N)c3)C(Cc3ccccc3)C(O)C2CCc2ccccc2)c1 (centres undefined)
15.1 nM	O=C1N(Cc2ccccc2)C(CCc2ccccc2)C(O)C(Cc2ccccc2)N1Cc1ccccc1 (centres undefined)
